Results taken from patent US20090227493A1, “COMBINED DRUG FOR TREATING DIABETES” (DAIICHI SANKYO COMPANY, LIMITED, priority 2005, published 2009).

How the values were obtained:
[1] = system: diabetic obese rats (male ZDF rats); assay: Test Example 2: effect of combined use of various GLP-1 receptor agonists and compound A, same manner as Test Example 1; details: combined use with compound A
[2] = system: diabetic obese rats (male ZDF rats); assay: Test Example 1: effect of combined use of GLP-1 (7-36) amide and compound A; type: in vivo, rat; details: from start of treatment to 57 days; FIG. 1-C
Excerpt: In this test, commercially available diabetic obese rats (male ZDF rats, 8 weeks old at the start of administration, purchased from Charles River Laboratories Japan, Inc.) were used. ZDF rats used in this test were acclimatized to the feeding time from 9:30 to 16:30 from one week before the start of treatment.
Rats were divided into four groups: the control group, compound A treatment group (group A), GLP-1 (7-36) amide treatment group (group B), and compound A plus GLP-1 (7-36) amide treatment group (group C).
The control group and group B were allowed free access to a powder feed (FR-2: Funabashi Farms Co., Ltd.) from 9:30 to 16:30. […] The dose of compound A was calculated as 16.1 μg/kg/day based on the food intake during this period. […]
Glycosylated hemoglobin (HbA1c) levels were measured at 42 days after the start of treatment, and blood sugar levels in full feeding were measured at 47 days. […]
Furthermore, insulin in the pancreas was extracted by the hydrochloric acid-ethanol method (Diabetelogia, Vol. 27, pp. 454-459 [1984]), and the insulin concentration in the extract was determined by using a rat insulin RIA kit manufactured by Linco Research, Inc. to obtain the pancreatic insulin content. […]
Blood was collected from the caudal vein of the rats, and blood sugar levels were measured with Glucoroder GXT (A & T Corporation). HbA1c levels were measured with DC2000 (Bayer Medical Ltd.).

| Compound | weight gain by compound A [1] | increases in body weight (weight gain) [2] | decrease in HbA1c levels [1] | pancreatic insulin content [1] |
| --- | --- | --- | --- | --- |
| CCCCCCCCCCCCCCCC(=O)N[C@@H](CCC(=O)NCCCC[C@H](NC(=O)[C@H](C)NC(=O)[C@H](C)NC(=O)[C@H](CCC(N)=O)NC(=O)CNC(=O)[C@H](CCC(=O)O)NC(=O)[C@H](CC(C)C)NC(=O)[C@H](Cc1ccc(O)cc1)NC(=O)[C@H](CO)NC(=O)[C@H](CO)NC(=O)[C@@H](NC(=O)[C@H](CC(=O)O)NC(=O)[C@H](CO)NC(=O)[C@@H](NC(=O)[C@H](Cc1ccccc1)NC(=O)[C@@H](NC(=O)CNC(=O)[C@H](CCC(=O)O)NC(=O)[C@H](C)NC(=O)[C@@H](N)Cc1cnc[nH]1)[C@@H](C)O)[C@@H](C)O)C(C)C)C(=O)N[C@@H](CCC(=O)O)C(=O)N[C@@H](Cc1ccccc1)C(=O)N[C@H](C(=O)N[C@@H](C)C(=O)N[C@@H](Cc1c[nH]c2ccccc12)C(=O)N[C@@H](CC(C)C)C(=O)N[C@H](C(=O)N[C@@H](CCCNC(=N)N)C(=O)NCC(=O)N[C@@H](CCCNC(=N)N)C(=O)NCC(=O)O)C(C)C)[C@@H](C)CC)C(=O)O [Arg^34 Lys^26(N^6-(γ-L-glutamyl(N^α-palmitoyl))) GLP-1 (7-37)] | suppressing | – | – | – |
| COc1ccc2nc(COc3ccc(CC4SC(=O)NC4=O)cc3)n(C)c2c1 (centres unmarked) [compound A, 5-[4-(6-Methoxy-1-methyl-1H-benzimidazol-2-ylmethoxy)benzyl]thiazolidine-2,4-dione] | – | weight gain | – | – |
| exendin 3 | suppressing | – | synergistic effect | marked increase |
